Measured values reported in ChEMBL document CHEMBL3885881, “DrugMatrix”.

Species: Rattus norvegicus
Assay: DrugMatrix - Regimen: Daily Repeat
Type: toxicity, organism-based, Sprague-Dawley
Set-up: regimen Daily Repeat, gender Male, age 6-8 weeks
Conditions: in vivo, po, route oral GAVAGE, […]; for ABSOLUTE BASOPHIL / ABSOLUTE EOSINOPHIL / ABSOLUTE LYMPHOCYTE / ABSOLUTE MONOCYTE / ABSOLUTE SEGMENTED NEUTROPHIL / BASOPHIL / EOSINOPHIL / ERYTHROCYTE COUNT / HEMATOCRIT / HEMOGLOBIN / LEUKOCYTE COUNT / LYMPHOCYTE / MEAN CORPUSCULAR HEMOGLOBIN / MEAN CORPUSCULAR HEMOGLOBIN CONCENTRATION / MONOCYTE / NEUTROPHIL / NUCLEATED RED BLOOD CELLS / PLATELET COUNT: tissue Blood
[1] = 54 mg/kg, 72 h, dose level Low, time 3 day
[2] = 54 mg/kg, 72 h, tissue Plasma, dose level Low, time 3 day
[3] = 54 mg/kg, 120 h, dose level Low, time 5 day
[4] = 54 mg/kg, 120 h, tissue Plasma, dose level Low, time 5 day

## CC(C)Cc1ccc(C(C)C(=O)O)cc1 (centres undefined) [IBUPROFEN]
0 mg/kg, 120 h, tissue Plasma, dose level Control, time 5 day
  URIC ACID: 0.63 mg/dL
[1]
  ABSOLUTE BASOPHIL: 0 CELLS/uL
  ABSOLUTE EOSINOPHIL: 0 CELLS/uL
  ABSOLUTE LYMPHOCYTE: 9143 CELLS/uL
  ABSOLUTE MONOCYTE: 146.33 CELLS/uL
  ABSOLUTE SEGMENTED NEUTROPHIL: 1110.67 CELLS/uL
  BASOPHIL: 0%
  EOSINOPHIL: 0%
  ERYTHROCYTE COUNT: 5.12 x10E6/uL
  HEMATOCRIT: 32.67%
  HEMOGLOBIN: 12.97 G/DL
  LEUKOCYTE COUNT: 10.4 x10E3/uL
  LYMPHOCYTE: 88%
  MEAN CORPUSCULAR HEMOGLOBIN: 25.37 pg
  MEAN CORPUSCULAR HEMOGLOBIN CONCENTRATION: 39.7 G/DL
  MONOCYTE: 1.33%
  NEUTROPHIL: 10.67%
  NUCLEATED RED BLOOD CELLS: 0 /100WBC
  PLATELET COUNT: 1145.67 x10E3/uL
[2]
  ALANINE AMINOTRANSFERASE: 89.33 u/L
  ALBUMIN: 4 G/DL
  ALKALINE PHOSPHATASE: 470.33 u/L
  ASPARTATE AMINOTRANSFERASE: 89.33 u/L
  BLOOD UREA NITROGEN: 14.33 mg/dL
  CARBON DIOXIDE: 40.33 mmol/L
  CHLORIDE: 98 MEQ/L
  CHOLESTEROL: 76.67 mg/dL
  CREATINE PHOSPHOKINASE: 208.67 u/L
  CREATININE: 0.13 mg/dL
  GLUCOSE: 160.67 mg/dL
  LACTATE DEHYDROGENASE: 55 u/L
  LIPASE: 10.67 u/L
  PHOSPHORUS: 9.53 mg/dL
  POTASSIUM: 5.26 MEQ/L
  SODIUM: 143.43 MEQ/L
  TOTAL BILIRUBIN: 0.2 mg/dL
  TOTAL PROTEIN: 5.9 G/DL
  URIC ACID: 0.37 mg/dL
[3]
  ABSOLUTE BASOPHIL: 0 CELLS/uL
  ABSOLUTE EOSINOPHIL: 0 CELLS/uL
  ABSOLUTE LYMPHOCYTE: 9058.67 CELLS/uL
  ABSOLUTE MONOCYTE: 185 CELLS/uL
  ABSOLUTE SEGMENTED NEUTROPHIL: 289.67 CELLS/uL
  BASOPHIL: 0%
  EOSINOPHIL: 0%
  ERYTHROCYTE COUNT: 5.22 x10E6/uL
  HEMATOCRIT: 32.87%
  HEMOGLOBIN: 13 G/DL
  LEUKOCYTE COUNT: 9.53 x10E3/uL
  LYMPHOCYTE: 95.33%
  MEAN CORPUSCULAR HEMOGLOBIN: 24.87 pg
  MEAN CORPUSCULAR HEMOGLOBIN CONCENTRATION: 39.57 G/DL
  MONOCYTE: 1.67%
  NEUTROPHIL: 3%
  NUCLEATED RED BLOOD CELLS: 0 /100WBC
  PLATELET COUNT: 1110.33 x10E3/uL
[4]
  ALANINE AMINOTRANSFERASE: 65.67 u/L
  ALBUMIN: 3.9 G/DL
  ALKALINE PHOSPHATASE: 301 u/L
  ASPARTATE AMINOTRANSFERASE: 84.67 u/L
  BLOOD UREA NITROGEN: 12.67 mg/dL
  CARBON DIOXIDE: 28.67 mmol/L
  CHLORIDE: 103.67 MEQ/L
  CHOLESTEROL: 69.67 mg/dL
  CREATINE PHOSPHOKINASE: 213.67 u/L
  CREATININE: 0.23 mg/dL
  GLUCOSE: 164 mg/dL
  LIPASE: 11 u/L
  PHOSPHORUS: 11.1 mg/dL
  POTASSIUM: 5.49 MEQ/L
  SODIUM: 144.2 MEQ/L
  TOTAL BILIRUBIN: 0.13 mg/dL
  TOTAL PROTEIN: 5.87 G/DL
  URIC ACID: 0.57 mg/dL
